Results published in ChEMBL document CHEMBL1155799 (Bioorg Med Chem, 2008).
pKi: −log10 of the molar value.

Tests used:
[1] = target: T1, 5-hydroxytryptamine receptor 2C (Homo sapiens, UniProt P28335)
T1 sequence (P28335 whole entry): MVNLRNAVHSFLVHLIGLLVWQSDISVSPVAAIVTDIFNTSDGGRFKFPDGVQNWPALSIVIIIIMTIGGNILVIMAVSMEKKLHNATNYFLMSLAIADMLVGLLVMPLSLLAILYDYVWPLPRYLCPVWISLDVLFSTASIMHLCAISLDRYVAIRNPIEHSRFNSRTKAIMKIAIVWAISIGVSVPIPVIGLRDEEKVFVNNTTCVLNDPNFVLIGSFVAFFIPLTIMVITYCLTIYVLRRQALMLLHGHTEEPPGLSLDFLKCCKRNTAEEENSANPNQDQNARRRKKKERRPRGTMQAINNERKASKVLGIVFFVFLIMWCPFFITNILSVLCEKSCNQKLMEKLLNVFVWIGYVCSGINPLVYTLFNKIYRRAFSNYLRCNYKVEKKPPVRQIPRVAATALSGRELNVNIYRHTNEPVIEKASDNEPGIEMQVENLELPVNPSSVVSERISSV
Description: Binding affinity to human cloned 5HT2C receptor

[2] = target: 5-hydroxytryptamine receptor 2A (Homo sapiens, UniProt P28223)
Description: Binding affinity to human cloned 5HT2A receptor

[3] = target: T2, 5-hydroxytryptamine receptor 1A (Homo sapiens, UniProt P08908)
T2 sequence (P08908 whole entry): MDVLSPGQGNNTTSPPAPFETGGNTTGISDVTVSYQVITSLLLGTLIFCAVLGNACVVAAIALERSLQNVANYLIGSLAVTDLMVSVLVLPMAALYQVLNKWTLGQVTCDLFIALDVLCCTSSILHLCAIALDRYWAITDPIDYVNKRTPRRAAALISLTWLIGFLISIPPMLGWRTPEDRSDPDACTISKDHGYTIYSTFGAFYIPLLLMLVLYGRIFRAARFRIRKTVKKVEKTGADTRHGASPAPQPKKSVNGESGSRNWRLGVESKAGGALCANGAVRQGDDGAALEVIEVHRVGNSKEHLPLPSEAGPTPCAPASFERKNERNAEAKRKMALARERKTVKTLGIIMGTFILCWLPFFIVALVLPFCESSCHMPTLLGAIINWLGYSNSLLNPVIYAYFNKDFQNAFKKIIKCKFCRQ
Description: Binding affinity to human cloned 5HT1A receptor

D(4) dopamine receptor = target: T3, D(4) dopamine receptor (Homo sapiens, UniProt P21917)
T3 sequence (P21917 whole entry): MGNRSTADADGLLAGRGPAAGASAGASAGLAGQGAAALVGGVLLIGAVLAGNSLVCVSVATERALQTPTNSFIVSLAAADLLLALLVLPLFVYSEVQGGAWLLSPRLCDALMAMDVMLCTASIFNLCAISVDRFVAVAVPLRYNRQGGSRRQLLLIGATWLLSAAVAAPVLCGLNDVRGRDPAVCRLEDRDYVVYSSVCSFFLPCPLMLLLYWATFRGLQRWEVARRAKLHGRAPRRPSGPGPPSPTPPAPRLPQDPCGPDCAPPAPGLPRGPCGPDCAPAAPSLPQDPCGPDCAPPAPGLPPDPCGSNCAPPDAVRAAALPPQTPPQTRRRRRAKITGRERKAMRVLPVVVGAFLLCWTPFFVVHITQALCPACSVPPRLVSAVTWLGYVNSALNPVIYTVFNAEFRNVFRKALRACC
Description: Binding affinity to human cloned dopamine D4 receptor

D(3) dopamine receptor = D(3) dopamine receptor (Homo sapiens, UniProt P35462)
Description: Binding affinity to human cloned dopamine D3 receptor

[4] = target: 5-hydroxytryptamine receptor 6 (Homo sapiens, UniProt P50406)
Description: Binding affinity to human cloned 5HT6 receptor

[5] = target: T4, Muscarinic acetylcholine receptor M1 (Homo sapiens, UniProt P11229)
T4 sequence (P11229 whole entry): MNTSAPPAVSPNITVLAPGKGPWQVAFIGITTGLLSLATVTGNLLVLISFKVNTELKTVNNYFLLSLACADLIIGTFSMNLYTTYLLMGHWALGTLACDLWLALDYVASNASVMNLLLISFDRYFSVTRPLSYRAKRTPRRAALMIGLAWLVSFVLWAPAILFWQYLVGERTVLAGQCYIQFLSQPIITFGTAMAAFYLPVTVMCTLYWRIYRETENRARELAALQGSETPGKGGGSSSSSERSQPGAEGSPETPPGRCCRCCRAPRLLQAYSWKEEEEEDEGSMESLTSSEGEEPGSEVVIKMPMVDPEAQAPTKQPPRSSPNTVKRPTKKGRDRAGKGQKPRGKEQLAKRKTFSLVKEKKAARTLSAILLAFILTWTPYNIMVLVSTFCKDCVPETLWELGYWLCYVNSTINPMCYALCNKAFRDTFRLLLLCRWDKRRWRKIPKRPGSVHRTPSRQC
Description: Binding affinity to human cloned muscarinic M1 receptor

Mus musculus = organism: Mus musculus; experiment: animal or person; format: functional; settings: Swiss Webster, 0.5 h
Description: Blockade of apomorphine-induced climbing stereotypy in Swiss Webster mouse after 30 mins

[6] = target: Sodium-dependent dopamine transporter (Homo sapiens, UniProt Q01959)
Description: Binding affinity to human DAT

[7] = target: 5-hydroxytryptamine receptor 2B (Homo sapiens, UniProt P41595)
Sequence of 5-hydroxytryptamine receptor 2B (P41595 whole entry): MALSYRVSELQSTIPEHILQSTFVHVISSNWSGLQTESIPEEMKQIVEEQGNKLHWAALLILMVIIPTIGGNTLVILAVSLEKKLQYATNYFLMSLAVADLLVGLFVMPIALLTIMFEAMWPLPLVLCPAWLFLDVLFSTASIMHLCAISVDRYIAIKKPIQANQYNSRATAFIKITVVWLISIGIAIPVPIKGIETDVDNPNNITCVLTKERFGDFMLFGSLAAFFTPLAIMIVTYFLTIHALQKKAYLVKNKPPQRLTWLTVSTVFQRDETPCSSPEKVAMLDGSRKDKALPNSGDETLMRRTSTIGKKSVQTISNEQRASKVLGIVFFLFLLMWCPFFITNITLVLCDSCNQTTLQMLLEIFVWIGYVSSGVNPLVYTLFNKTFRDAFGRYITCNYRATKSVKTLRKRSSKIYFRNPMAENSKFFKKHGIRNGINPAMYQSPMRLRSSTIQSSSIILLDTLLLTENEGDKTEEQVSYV
Description: Binding affinity to human cloned 5HT2B receptor

Sequence of 5-hydroxytryptamine receptor 2A (P28223 whole entry): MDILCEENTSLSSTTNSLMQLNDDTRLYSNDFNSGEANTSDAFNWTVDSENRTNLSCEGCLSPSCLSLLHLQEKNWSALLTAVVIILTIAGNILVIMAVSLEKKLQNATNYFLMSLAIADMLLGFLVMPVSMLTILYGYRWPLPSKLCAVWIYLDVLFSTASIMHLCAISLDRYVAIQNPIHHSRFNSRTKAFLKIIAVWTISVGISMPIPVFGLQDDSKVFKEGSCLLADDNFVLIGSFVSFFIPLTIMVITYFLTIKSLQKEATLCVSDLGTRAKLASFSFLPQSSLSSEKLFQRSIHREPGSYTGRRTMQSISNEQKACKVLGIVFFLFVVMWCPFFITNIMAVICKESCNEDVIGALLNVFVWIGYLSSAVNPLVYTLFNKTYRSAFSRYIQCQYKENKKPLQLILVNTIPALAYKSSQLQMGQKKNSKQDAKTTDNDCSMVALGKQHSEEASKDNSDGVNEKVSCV
Sequence of D(3) dopamine receptor (P35462 whole entry): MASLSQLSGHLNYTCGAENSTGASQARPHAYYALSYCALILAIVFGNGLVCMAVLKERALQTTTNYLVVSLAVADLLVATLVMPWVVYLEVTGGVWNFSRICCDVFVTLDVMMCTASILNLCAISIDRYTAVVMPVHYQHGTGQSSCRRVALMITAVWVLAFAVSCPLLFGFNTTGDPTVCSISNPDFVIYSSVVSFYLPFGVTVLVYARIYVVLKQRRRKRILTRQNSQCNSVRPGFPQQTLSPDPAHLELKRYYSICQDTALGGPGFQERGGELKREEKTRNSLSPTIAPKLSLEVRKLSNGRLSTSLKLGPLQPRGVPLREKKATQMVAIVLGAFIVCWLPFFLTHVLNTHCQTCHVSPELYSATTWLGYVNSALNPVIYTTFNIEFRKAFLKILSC
Sequence of 5-hydroxytryptamine receptor 6 (P50406 whole entry): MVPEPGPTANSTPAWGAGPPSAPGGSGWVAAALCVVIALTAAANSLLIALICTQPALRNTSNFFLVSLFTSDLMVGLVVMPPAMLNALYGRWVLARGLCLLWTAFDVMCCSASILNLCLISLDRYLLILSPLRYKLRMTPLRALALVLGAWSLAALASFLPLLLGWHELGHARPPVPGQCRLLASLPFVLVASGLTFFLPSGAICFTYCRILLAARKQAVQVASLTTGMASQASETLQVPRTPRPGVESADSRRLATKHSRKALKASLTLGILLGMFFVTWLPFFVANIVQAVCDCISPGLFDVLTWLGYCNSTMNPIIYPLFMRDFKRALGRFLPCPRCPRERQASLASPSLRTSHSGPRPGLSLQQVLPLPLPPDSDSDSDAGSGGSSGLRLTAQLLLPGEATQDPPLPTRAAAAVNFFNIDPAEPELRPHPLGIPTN
Sequence of Sodium-dependent dopamine transporter (Q01959 whole entry): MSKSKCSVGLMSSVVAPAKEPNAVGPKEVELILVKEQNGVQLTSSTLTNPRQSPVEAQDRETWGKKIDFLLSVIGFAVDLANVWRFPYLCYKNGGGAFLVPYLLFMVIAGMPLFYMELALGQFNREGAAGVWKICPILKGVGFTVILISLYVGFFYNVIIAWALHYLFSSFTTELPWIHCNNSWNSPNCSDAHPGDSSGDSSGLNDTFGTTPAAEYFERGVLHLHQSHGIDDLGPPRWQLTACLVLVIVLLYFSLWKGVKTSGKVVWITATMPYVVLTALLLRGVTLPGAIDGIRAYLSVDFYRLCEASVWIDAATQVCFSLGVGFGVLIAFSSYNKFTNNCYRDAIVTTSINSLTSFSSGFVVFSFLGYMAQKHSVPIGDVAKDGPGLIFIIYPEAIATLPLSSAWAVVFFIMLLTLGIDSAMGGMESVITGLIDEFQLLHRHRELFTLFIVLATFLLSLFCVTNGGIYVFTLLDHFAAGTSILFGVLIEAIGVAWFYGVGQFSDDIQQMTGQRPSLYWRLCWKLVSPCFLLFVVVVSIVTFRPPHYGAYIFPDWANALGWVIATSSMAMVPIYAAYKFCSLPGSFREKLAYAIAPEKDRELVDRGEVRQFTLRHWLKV

SMILES: O=C(CCCN1C2CCC1CC(O)(c1ccccc1)C2)c1ccc(F)cc1 (stereo not given)
- pKi [1]: < 5.00
- pKi [2]: 7.91
- pKi [3]: 7.42

SMILES: O=C(CCCN1CC2CCC(C1)N2c1ccccc1)c1ccc(F)cc1
- pKi (D(4) dopamine receptor): 5.68
- pKi (D(3) dopamine receptor): 6.22

SMILES: O=C1Cc2cc(CCN3CCN(c4nsc5ccccc45)CC3)c(Cl)cc2N1 [ZIPRASIDONE]
- pKi [4]: 7.12
- pKi [5]: 5.29
- pKi [3]: 8.60

SMILES: O=C(CCCN1CC2CC1CN2c1ccc(Cl)cc1)c1ccc(F)cc1 (stereo not given)
- pKi (D(4) dopamine receptor): 6.28
- pKi (D(3) dopamine receptor): 6.66

SMILES: O=C(CCCN1CCC(O)(c2ccc(Cl)cc2)C1)c1ccc(F)cc1 (single isomer, unassigned; (+))
- pKi [3]: 6.11

SMILES: O=C(CCCN1C2CCC1CC(c1ccccc1)C2)c1ccc(F)cc1 (stereo not given)
- pKi [1]: 5.97
- pKi [2]: 6.97
- pKi [3]: 6.38

SMILES: O=C(CCCN1CCCN(c2ccc(Cl)cc2)CC1)c1ccc(F)cc1
- pKi [4]: 6.53
- ED50 (Mus musculus): 35.8 µmol/kg
- pKi [6]: 5.94
- pKi [7]: 6.31

SMILES: O=C(CCCN1CCN(c2ccc(Cl)cc2)CC1)c1ccc(F)cc1
- pKi [1]: 5.45
- pKi [3]: 7.04
